# Source: PubChem BioAssay AID179 (DTP/NCI, 2004)
# Active and inactive are the calls of the source.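 How the source made its calls: active means compounds giving half or more protection of infected cells from virus-caused growth loss, again on retest; inactive means the rest.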 *1 amine or outer side, *2 acyl side, *3 side chain or, on linkers, in order; H or OH if unused. Where a SMILES comes first, the peptide text is derived from it. Bridges are numbered along the chain shown (N, C = ends). [ ]: non-standard residue; d: D form. The star is where a group is joined. ξ: configuration not given here. γ4hArg(2R,3R-(OH)2) = N=C(N)NCCC[C@H](N[*:1])[C@@H](O)[C@@H](O)C(=O)[*:2]; Gln(3S,4R-Me2) = C[C@H]([C@H](N)C(=O)O)[C@@H](C)C(N)=O; X5 = CC(C)C[C@H](C)[C@@H](O)[C@@H](C)C(=O)*; X6 = COC(c1ccc(O)cc1)C(N[*:1])C(=O)[*:2]; NMeQ = CN[C@@H](CCC(N)=O)C(=O)O; Thr(3ξ) = CC(O)[C@H](N)C(=O)O; NMeA = CN[C@@H](C)C(=O)O; Boc = CC(C)(C)OC(=O)*; OSu = O=C1CCC(=O)N1O*
# Test system: CEM cells HIV-1 protection, formazan growth assay
# Assay: NCI AIDS Antiviral Assay
# Settings: for IC50: measured here: growth of uninfected CEM cells
# Summary of the method: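 Protection of CEM cells against HIV-1 was scored from cell growth (soluble formazan) across five concentrations, with parallel uninfected cells. Lack of protection may reflect toxicity.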
SMILES,EC50,IC50,outcome
"COC(c1ccc(O)cc1)C1NC(=O)[C@H](CCC(N)=O)N(C)C(=O)[C@H](CC(C)C)NC(=O)[C@@H](CCCN=C(N)N)NC(=O)[C@H](C(C)O)NC(=O)[C@@H](NC(=O)[C@@H](NC(=O)[C@H](O)[C@H](O)[C@H](CCCN=C(N)N)NC(=O)[C@H](C)NC(=O)[C@H](C)[C@H](O)[C@@H](C)CC(C)C)[C@@H](C)[C@@H](C)C(N)=O)[C@@H](C)OC(=O)[C@H](C)N(C)C1=O (stereo partly drawn) (X5-A[γ4hArg(2R,3R-(OH)2)][Gln(3S,4R-Me2)]T[Thr(3ξ)][dR]L[NMeQ][X6][NMeA]; ester 4-C)",0.0933 µM,0.794 µM,–
CC(C)(C)OC(=O)NC(CCC(=O)OCc1ccccc1)C(=O)NCCCO (stereo not given),> 200 µM,> 200 µM,–
COC(=O)c1ccccc1N(C(=O)c1ccccc1)c1ccccc1C,–,–,inactive
NC(CCSCCSCCC(N)C(=O)O)C(=O)O (stereo not given),> 3.39 µM,> 3.39 µM,–
Cc1cccc2[s+]snc12,> 245 µM,75.9 µM,–
CC1=Nc2ccccc2/C1=C\c1c(C)[nH]c2ccccc12,0.0631 µM,11.5 µM,–
S=C1SC2(CCCC2)NC2=C1CCC2,> 126 µM,> 126 µM,–
CCOC(=O)Cc1nc(Cl)c2c(C)c(C)sc2n1,> 174 µM,38.9 µM,–
O=C1C(Cl)N(c2ccccc2)C1c1c[nH]c2ccccc12 (stereo not given),> 316 µM,288 µM,–
CCN(CC)C(=O)c1cc([N+](=O)[O-])c(=O)n2c1[nH]c1ccccc12,> 200 µM,151 µM,–
C1=C(c2ccccc2)SC(N2CCCCC2)S1 (stereo not given),–,–,inactive
Cc1ccc(-c2n[nH]c(=O)n2/N=C\c2ccccc2O)cc1,> 200 µM,> 200 µM,–
CCOC(=O)C1C(c2ccc3c(c2)OCO3)c2c([nH][nH]c2=O)CC1(C)O (stereo not given),> 200 µM,> 200 µM,–
CCC(=O)C1(N2CCOCC2)CCN(CCCC(=O)c2ccc(F)cc2)CC1,> 200 µM,> 200 µM,–
O=C1NC(O)c2c(F)cccc2O1 (stereo not given),> 200 µM,132 µM,–
CN(C)CCNC(=O)c1cc([N+](=O)[O-])cc2c1Oc1ccccc1O2,> 200 µM,10.5 µM,–
CCOc1ccccc1NC(=O)C(C#N)C1=C(Cl)C(=O)c2ccccc2C1=O (stereo not given),–,–,inactive
Cc1ccc(S(=O)(=O)NN=C2CCCCCCCCCCC2)cc1,> 200 µM,> 200 µM,–
[O-]/N=[N+](/[O-])C1CCCCC1=[N+]1CCOCC1 (stereo not given),> 200 µM,32.4 µM,–
Cc1cc(O)ccc1N=O,> 200 µM,3.39 µM,–
COc1ccc2c(c1OC)[C@]13CCCC[C@@H]1[C@H](C2)N(C)CC3,–,–,inactive

SMILES,EC50,IC50,outcome
O=C(CCCn1ccnc1[N+](=O)[O-])NCCn1ccnc1,–,–,inactive
O=C(Nc1ccc([N+](=O)[O-])cc1C(=O)O)c1ccc([N+](=O)[O-])cc1,–,–,inactive
CC/C(SC)=[N+](\C)[O-],> 955 µM,174 µM,–
NN1C(=O)CSC1=S,> 912 µM,295 µM,–
COc1cc2c(c(OC)c1OC)-c1ccc(=O)c(OC)cc1C(NC(C)=O)CC2 (stereo not given),–,–,inactive
COC1/C=C/OC2(C)Oc3c(C)c(O)c4c(c3C2=O)C(=O)C(CO)=C(NC(=O)/C(C)=C\C=C\C(C)C(O)C(C)C(O)C(C)C(OC(C)=O)C1C)C4=O (stereo not given),> 200 µM,91.2 µM,–
Cn1cnc(N2CCCC2)c(C#N)c1=S,> 200 µM,> 200 µM,–
CCCCCC(C)SC1(C(=O)OC)CC(OC(C)=O)C(NC(C)=O)C([C@H](OC(C)=O)[C@@H](COC(C)=O)OC(C)=O)O1 (stereo not given in full),> 200 µM,63.1 µM,–
NC(Cc1ccc(S(=O)(=O)O)cc1)C(=O)NC(Cc1ccc(S(=O)(=O)O)cc1)C(=O)NC(Cc1ccc(S(=O)(=O)O)cc1)C(=O)NC(Cc1ccc(S(=O)(=O)O)cc1)C(=O)O (stereo not given),> 200 µM,> 200 µM,–
CC(C)(C)C(=O)C(C#N)C(=O)C(C)(C)C,> 200 µM,> 200 µM,–
CCCCCN1CCN(c2ncccn2)CC1,> 200 µM,> 200 µM,–
C=Cc1cc[n+](Cc2ccc(C[n+]3ccc(C=C)cc3)cc2)cc1,> 166 µM,85.1 µM,–
Cc1c(C)c(C)c(-n2c(=O)n(C)c(=O)n2-n2c(=O)n(C)c(=O)n2-c2c(C)c(C)c(C)c(C)c2C)c(C)c1C,> 100 µM,6.31 µM,–
Nc1ccc(C(=O)NN2C(=O)C(Cl)C2c2cc(Br)cc(Br)c2O)cc1 (stereo not given),> 200 µM,15.5 µM,–
COc1cc(C2C3=C(COC3=O)OC(C)(C)Oc3cc4c(cc32)OCO4)cc(OC)c1O (stereo not given),> 2 µM,0.575 µM,–
COc1cc(C(C)O)c[n+](CCC2CNc3ccccc32)c1 (stereo not given),> 219 µM,195 µM,–
O=C1c2c(O)cc(O)cc2OC(c2ccc(O)cc2)C1C1C(=O)c2c(O)cc(O)cc2OC1c1ccc(O)cc1 (stereo not given),> 200 µM,46.8 µM,–
OC(Cc1ccc2ccccc2n1)(C(F)(F)F)C(F)(F)F,> 200 µM,> 200 µM,–
Cc1ccc2c(c1)-c1[nH]c3ccccc3c1CS2,–,–,inactive
S=P(c1ccccc1)(N1CCCCC1)N1CCCCC1,> 43.7 µM,> 43.7 µM,–
Cc1ccc(S(=O)(=O)n2nc(Oc3ccc(Cl)c(Cl)c3)nc2N)cc1,> 3.63 µM,> 3.63 µM,–

SMILES,EC50,IC50,outcome
CCN(CC)C(=S)N=N/C(C)=C1/C=CC=CN1O,> 200 µM,1.1 µM,–
COC(=O)c1nn2c(=O)[nH]c3ccccc3c2c1C(=O)OC,> 562 µM,331 µM,–
CC12CCC3(OCCO3)C(OC(=O)c3ccccc3)=C1CCC21OCCO1 (stereo not given),–,–,inactive
CC(NC(=O)C(NC(=O)OC(C)(C)C)C(C)C)C(=O)NCC(=O)ON1C(=O)CCC1=O (stereo not drawn) (Boc-Val-Ala-Gly-OSu; configuration not given here),> 200 µM,117 µM,–
CCCCOC(=O)NC(Nc1ccc(S(=O)(=O)Nc2ncccn2)cc1)(C(F)(F)F)C(F)(F)F,> 200 µM,> 200 µM,–
C=C(Br)CN1CCC2(c3ccccc3)C(=O)C([Se]c3ccccc3)CCC12 (stereo not given),> 14.8 µM,> 14.8 µM,–
C[CH2][Sn]1([CH2]C)[O]C2C(O)OC(CO)C(O)C2[O]1 (stereo not given),> 200 µM,3.16 µM,–
COc1cc(/C=C2/SC(c3ccccc3)N(c3cccc(NC(C)=O)c3)C2=O)cc(OC)c1OC (stereo not given),> 200 µM,53.7 µM,–
COc1ccc(CCNC=O)cc1OC,–,–,inactive
C/C=C/C(=O)C(C)C1=CC(=O)C2=C(OC34CC[C@H](O)C(C)(C)[C@@H]3CC[C@H](C)C4(C)C2)C1=O (stereo not given in full),–,–,inactive
CC1(C)OC(=O)C=C[C@@]2(C)C1CC(=O)C1(C)C2CCC2(C)C(c3ccoc3)OC(=O)[C@H]3O[C@]321 (stereo not given in full),> 200 µM,> 200 µM,–
Cc1ccccc1-c1nc2ccc(N)nc2nc1N,–,–,inactive
Cn1c(=O)ccc2cc(C(=O)c3ccccc3)ccc21,> 191 µM,39.8 µM,–
O=C(O)c1c(O)ccc(N=Nc2ccc(N=Nc3ccc4c(S(=O)(=O)O)cccc4c3O)c3ccccc23)c1O,> 100 µM,> 100 µM,–
O=C(O)Cc1cccc2c1OC(c1ccccc1)C(Cl)(C(=O)c1ccccc1)C2=O (stereo not given),> 200 µM,5.5 µM,–
COc1cc(OC)c2c(c1)C(=O)c1ccccc1C2=O,–,–,inactive
O=c1ccc2ccccc2o1,> 1700 µM,1410 µM,–
O=C(O)CC(=O)Nc1ccccc1S,> 200 µM,> 200 µM,–
CNS(=O)(=O)c1ccccc1C(C)(O)c1ccccc1 (stereo not given),> 200 µM,> 200 µM,–
COc1cc2oc3c(C)c(=O)cc4oc(-c5ccccc5)cc(c2c2c1CCC(c1ccccc1)O2)c43 (stereo not given),> 4.07 µM,> 4.07 µM,–
COc1ccc2c(c1)CCC1OC(c3cccnc3)OC21 (stereo not given),> 200 µM,30.2 µM,–

SMILES,EC50,IC50,outcome
C1OCN2CSCC12 (stereo not given),> 1910 µM,110 µM,–
CCCCCCCC(=O)N1C2CC3CCC2(CS1(=O)=O)C3(C)C (stereo not given),> 200 µM,19.1 µM,–
COc1cc(O)c2c(=O)c3ccccc3n(C)c2c1,> 200 µM,11.2 µM,–
CN1CCCC1c1cccnc1 (stereo not given),77.6 µM,> 200 µM,–
CCN(CC)CC(C(C)=O)C(c1ccccc1)c1c(O)c2ccccc2oc1=O (stereo not given),> 43.7 µM,> 43.7 µM,–
CCN(C(C)=N)c1ccccc1,> 295 µM,67.6 µM,–
O=C(Cc1ccccc1)N/N=C(/c1nc2ccc([N+](=O)[O-])cc2[nH]c1=O)C(O)c1ccco1 (stereo not given),> 209 µM,> 209 µM,–
C[N+]1(C)CCC(OC(=O)C(O)(c2ccccc2)C2CCCC2)C1 (stereo not given),> 200 µM,> 200 µM,–
COc1cc([C@H]2Oc3c(OC)cc(/C=C/C(=O)O)cc3[C@@H]2C(=O)O)ccc1O,120 µM,> 200 µM,–
COc1ccc(C2SC(N)=Nc3c2c(C)nn3C(=O)c2ccncc2)cc1 (stereo not given),> 200 µM,110 µM,–
O=C(CN1CCCCC1)N1CCc2c([nH]c3ccccc23)C1c1cccnc1 (stereo not given),> 26.9 µM,> 26.9 µM,–
NCCCN(CCCN(C(=O)Nc1ccccc1)c1ccccc1)C(=O)Nc1ccccc1,> 200 µM,55 µM,–
O=C1N(O)C2(C=CCCC2)/C(=N/O)C12CCCCC2 (stereo not given),> 70.8 µM,> 70.8 µM,–
CN1CN(c2ccccc2)C2(CCN(Cc3nc4ccccc4s3)CC2)C1=O,> 200 µM,30.9 µM,–
CC1(C)CNC[C@@](C)(O)C(=O)[N-]C(C)(C)CNC[C@](C)(O)C(=O)[N-]1.[Ni+2],> 200 µM,120 µM,–
COc1cccc2c1OC1c3ccccc3OCC1C2 (stereo not given),> 200 µM,97.7 µM,–
CCN(CC)c1ccc(NC(=S)NN)cc1,> 200 µM,11.2 µM,–
CC(=O)O[C@H]1C[C@H]2[C@@H](OC(C)=O)/C=C3\C[C@](C)(C(=O)[C@H](O)C(=C1C)C2(C)C)[C@@H](O)C[C@@H]3OC(=O)[C@H](O)[C@H](c1ccccc1)N(C)C,> 200 µM,> 200 µM,–
CC1=NN=C(N)NC1=CC(Sc1ccc(Cl)cc1)c1c(O)ccc2ccccc12 (stereo not given),> 200 µM,11.2 µM,–
COC(=O)Nc1cn2nc(N)sc2n1,> 200 µM,> 200 µM,–
CSc1cc(-c2ccccn2)nc(-c2ccccn2)c1.CSc1cc(-c2ccccn2)nc(-c2ccccn2)c1.[Ni+2].[O-][Cl+3]([O-])([O-])[O-],> 200 µM,> 200 µM,–
